Data reported in the kinase profiling compilation of Christmann-Franck et al. (2016).

Tests used:
Assay in all cases: KINOMEscan competition binding
Conditions in all cases: compound 10.0 µM
[1] = target: LCK (human) (UniProt P06239)
[2] = target: LATS2 (human) (UniProt Q9NRM7)
[3] = target: MAP3K9 (human) (UniProt P80192)
[4] = target: CDK15 (human) (UniProt Q96Q40)
[5] = target: ACVR2A (human) (UniProt P27037)
[6] = target: MUSK (human) (UniProt O15146)
[7] = target: NTRK2 (human) (UniProt Q16620)
[8] = target: PRKACB (human) (UniProt P22694)
[9] = target: SRPK1 (human) (UniProt Q96SB4)
[10] = target: MYLK (human) (UniProt Q15746)
Sequence of MYLK (human) (Q15746 whole entry, looked up): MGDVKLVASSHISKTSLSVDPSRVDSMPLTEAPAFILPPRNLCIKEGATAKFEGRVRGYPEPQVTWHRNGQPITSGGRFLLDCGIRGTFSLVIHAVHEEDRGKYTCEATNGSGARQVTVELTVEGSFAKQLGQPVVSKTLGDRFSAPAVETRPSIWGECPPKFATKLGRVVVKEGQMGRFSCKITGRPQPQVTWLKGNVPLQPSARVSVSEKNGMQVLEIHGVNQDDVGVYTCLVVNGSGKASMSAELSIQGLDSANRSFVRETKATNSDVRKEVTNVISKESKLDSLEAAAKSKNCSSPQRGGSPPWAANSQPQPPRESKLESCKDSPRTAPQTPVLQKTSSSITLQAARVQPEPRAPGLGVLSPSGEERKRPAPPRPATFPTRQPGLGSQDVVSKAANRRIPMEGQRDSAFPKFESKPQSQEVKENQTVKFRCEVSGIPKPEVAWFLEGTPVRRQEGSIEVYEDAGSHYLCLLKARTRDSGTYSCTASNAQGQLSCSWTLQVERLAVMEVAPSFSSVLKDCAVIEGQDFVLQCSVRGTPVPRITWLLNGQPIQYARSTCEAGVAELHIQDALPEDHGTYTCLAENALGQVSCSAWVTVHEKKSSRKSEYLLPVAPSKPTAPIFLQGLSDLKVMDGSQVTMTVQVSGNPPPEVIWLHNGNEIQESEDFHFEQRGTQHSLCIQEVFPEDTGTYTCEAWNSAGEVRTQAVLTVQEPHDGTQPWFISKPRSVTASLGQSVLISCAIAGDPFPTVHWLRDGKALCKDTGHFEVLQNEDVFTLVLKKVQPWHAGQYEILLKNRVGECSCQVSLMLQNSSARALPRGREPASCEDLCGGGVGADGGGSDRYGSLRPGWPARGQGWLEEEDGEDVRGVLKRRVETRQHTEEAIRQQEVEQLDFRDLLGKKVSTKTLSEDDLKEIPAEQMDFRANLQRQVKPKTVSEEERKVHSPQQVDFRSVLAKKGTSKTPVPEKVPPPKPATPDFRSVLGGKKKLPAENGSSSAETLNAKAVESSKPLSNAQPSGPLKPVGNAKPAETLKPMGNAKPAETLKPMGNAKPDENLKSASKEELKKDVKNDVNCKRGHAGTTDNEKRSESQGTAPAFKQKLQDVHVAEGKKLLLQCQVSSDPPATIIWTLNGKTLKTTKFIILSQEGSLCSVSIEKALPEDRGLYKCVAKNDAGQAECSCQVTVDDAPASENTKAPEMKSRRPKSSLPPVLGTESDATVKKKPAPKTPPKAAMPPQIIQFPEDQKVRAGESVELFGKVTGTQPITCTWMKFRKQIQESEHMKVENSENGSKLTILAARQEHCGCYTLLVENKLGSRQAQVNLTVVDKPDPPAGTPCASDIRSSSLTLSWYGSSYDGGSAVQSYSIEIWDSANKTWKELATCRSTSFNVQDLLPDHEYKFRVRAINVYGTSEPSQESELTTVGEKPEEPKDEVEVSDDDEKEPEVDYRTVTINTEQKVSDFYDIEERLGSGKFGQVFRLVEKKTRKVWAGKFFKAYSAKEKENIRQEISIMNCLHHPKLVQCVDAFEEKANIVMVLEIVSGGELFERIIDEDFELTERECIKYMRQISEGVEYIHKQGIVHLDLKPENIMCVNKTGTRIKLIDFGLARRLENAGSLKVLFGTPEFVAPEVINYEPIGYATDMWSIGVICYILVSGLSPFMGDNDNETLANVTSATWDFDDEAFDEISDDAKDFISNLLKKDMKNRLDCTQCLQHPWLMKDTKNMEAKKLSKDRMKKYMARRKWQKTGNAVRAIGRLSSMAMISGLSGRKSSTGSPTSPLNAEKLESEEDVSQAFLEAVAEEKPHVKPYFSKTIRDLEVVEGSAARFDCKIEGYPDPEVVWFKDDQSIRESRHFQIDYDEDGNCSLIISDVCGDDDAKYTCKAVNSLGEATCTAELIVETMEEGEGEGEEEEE

[11] = target: PDGFRB (human) (UniProt P09619)
[12] = target: STK17A (human) (UniProt Q9UEE5)
Sequence of STK17A (human) (Q9UEE5 whole entry, looked up): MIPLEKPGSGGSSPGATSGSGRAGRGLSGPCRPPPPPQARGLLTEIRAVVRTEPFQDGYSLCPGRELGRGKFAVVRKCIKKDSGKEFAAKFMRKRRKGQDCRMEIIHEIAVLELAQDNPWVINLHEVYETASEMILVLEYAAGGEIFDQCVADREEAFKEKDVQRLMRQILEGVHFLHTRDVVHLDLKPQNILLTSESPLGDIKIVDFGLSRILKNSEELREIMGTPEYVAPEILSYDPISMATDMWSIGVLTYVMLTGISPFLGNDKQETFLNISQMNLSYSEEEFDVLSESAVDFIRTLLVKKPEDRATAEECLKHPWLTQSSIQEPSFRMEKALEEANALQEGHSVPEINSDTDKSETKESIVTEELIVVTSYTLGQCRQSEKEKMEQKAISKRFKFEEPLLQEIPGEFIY

[13] = target: EPHB1 (human) (UniProt P54762)
[14] = target: MAP4K5 (human) (UniProt Q9Y4K4)
[15] = target: ERBB4 (human) (UniProt Q15303)
[16] = target: AURKB (human) (UniProt Q96GD4)
[17] = target: MINK1 (human) (UniProt Q8N4C8)
[18] = target: HCK (human) (UniProt P08631)
[19] = target: RPS6KA6 KD1 (human) (UniProt Q9UK32)
[20] = target: CAMK2A (human) (UniProt Q9UQM7)
[21] = target: PAK1 (human) (UniProt Q13153)
[22] = target: NEK1 (human) (UniProt Q96PY6)
[23] = target: CSNK2A1 (human) (UniProt P68400)
[24] = target: CLK2 (human) (UniProt P49760)
[25] = target: ANKK1 (human) (UniProt Q8NFD2)
[26] = target: PRKACA (human) (UniProt P17612)
[27] = target: SRPK2 (human) (UniProt P78362)
[28] = target: MAPK15 (human) (UniProt Q8TD08)
[29] = target: CDK5 (human) (UniProt Q00535)
Sequence of CDK5 (human) (Q00535 whole entry, looked up): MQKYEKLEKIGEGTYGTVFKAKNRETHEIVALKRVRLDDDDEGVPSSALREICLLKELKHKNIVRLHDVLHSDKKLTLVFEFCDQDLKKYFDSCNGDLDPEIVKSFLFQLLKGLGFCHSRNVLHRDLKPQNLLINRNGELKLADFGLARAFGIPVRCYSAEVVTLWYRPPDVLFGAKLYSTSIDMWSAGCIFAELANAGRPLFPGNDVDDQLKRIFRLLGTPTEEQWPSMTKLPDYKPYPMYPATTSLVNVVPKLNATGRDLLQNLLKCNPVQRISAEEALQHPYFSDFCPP

[30] = target: NTRK1 (human) (UniProt P04629)
[31] = target: DMPK (human) (UniProt Q09013)
[32] = target: AKT2 (human) (UniProt P31751)
[33] = target: MAP3K11 (human) (UniProt Q16584)
[34] = target: MAPK9 (human) (UniProt P45984)
Sequence of MAPK9 (human) (P45984 whole entry, looked up): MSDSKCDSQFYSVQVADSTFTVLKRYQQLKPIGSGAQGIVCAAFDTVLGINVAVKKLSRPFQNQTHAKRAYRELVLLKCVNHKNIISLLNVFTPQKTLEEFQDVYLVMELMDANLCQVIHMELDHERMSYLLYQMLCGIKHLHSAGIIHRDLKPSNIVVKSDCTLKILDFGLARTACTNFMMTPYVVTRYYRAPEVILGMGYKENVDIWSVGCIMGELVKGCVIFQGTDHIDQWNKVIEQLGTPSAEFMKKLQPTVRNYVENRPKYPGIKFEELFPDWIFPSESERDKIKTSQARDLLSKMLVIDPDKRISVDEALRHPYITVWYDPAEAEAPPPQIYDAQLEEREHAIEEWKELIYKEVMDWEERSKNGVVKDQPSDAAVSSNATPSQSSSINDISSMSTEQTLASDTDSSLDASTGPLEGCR

[35] = target: MKNK2 (human) (UniProt Q9HBH9)
[36] = target: CDK17 (human) (UniProt Q00537)
[37] = target: MAP2K4 (human) (UniProt P45985)
Sequence of MAP2K4 (human) (P45985 whole entry, looked up): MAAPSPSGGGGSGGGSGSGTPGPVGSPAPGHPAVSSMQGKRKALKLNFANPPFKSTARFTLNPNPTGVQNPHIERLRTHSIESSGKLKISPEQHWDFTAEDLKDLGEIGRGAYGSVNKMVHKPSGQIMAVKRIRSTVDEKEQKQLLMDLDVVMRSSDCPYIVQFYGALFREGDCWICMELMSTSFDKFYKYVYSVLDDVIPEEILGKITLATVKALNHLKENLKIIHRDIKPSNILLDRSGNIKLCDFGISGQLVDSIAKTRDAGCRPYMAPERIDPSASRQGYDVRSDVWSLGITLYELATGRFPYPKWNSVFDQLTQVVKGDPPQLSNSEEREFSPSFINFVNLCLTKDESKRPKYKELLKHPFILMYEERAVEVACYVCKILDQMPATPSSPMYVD

[38] = target: ERBB2 (human) (UniProt P04626)
[39] = target: STK33 (human) (UniProt Q9BYT3)
[40] = system: EIF2AK4 KD2 (human), Q9P2K8 [S808G]
Sequence of EIF2AK4 KD2 (human), Q9P2K8 [S808G] (Q9P2K8 whole entry S808G, looked up): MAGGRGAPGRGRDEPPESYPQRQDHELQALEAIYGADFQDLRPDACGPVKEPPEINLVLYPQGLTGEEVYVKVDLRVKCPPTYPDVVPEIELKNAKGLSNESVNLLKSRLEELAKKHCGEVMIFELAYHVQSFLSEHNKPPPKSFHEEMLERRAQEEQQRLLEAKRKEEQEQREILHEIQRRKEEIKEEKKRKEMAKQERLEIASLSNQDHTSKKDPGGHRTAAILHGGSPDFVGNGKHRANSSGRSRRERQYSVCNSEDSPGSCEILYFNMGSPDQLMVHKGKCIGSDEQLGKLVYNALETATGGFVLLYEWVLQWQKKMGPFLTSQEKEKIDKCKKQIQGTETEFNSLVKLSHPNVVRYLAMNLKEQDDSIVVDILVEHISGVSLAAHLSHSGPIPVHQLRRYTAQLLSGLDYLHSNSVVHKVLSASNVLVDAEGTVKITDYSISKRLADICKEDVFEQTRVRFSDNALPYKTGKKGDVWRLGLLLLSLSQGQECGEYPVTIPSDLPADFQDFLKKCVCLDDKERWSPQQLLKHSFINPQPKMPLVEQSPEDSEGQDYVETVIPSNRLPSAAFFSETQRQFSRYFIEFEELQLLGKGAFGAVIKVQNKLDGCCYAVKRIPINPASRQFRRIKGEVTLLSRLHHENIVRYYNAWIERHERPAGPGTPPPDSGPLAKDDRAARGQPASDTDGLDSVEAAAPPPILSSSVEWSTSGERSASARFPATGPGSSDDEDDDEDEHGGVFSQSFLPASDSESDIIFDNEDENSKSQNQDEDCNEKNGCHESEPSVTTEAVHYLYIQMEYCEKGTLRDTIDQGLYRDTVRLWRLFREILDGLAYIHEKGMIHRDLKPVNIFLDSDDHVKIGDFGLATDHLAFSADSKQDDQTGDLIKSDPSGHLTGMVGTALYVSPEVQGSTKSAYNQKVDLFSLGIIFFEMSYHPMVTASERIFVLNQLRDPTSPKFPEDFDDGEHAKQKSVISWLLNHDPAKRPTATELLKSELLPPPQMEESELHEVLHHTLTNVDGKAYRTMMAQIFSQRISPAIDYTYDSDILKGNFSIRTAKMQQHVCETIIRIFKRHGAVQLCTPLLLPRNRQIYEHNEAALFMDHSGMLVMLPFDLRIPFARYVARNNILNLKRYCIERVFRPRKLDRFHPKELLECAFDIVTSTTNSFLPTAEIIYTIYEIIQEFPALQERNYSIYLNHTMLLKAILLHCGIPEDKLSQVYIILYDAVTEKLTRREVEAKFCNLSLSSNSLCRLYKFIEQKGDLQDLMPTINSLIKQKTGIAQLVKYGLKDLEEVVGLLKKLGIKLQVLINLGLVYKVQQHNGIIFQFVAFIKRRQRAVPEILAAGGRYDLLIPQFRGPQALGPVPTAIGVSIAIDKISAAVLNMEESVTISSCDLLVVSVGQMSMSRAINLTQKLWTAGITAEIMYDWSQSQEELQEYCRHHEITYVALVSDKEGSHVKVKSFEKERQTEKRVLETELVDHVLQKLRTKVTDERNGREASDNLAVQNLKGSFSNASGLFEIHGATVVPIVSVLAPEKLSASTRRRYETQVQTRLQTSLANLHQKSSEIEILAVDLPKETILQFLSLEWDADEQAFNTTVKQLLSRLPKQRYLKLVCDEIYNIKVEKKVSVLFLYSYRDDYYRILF

| Compound | kinase still bound, per cent of control [1] [%] | kinase still bound, per cent of control [2] [%] | kinase still bound, per cent of control [3] [%] | kinase still bound, per cent of control [4] [%] | kinase still bound, per cent of control [5] [%] | kinase still bound, per cent of control [6] [%] | kinase still bound, per cent of control [7] [%] | kinase still bound, per cent of control [8] [%] | kinase still bound, per cent of control [9] [%] | kinase still bound, per cent of control [10] [%] | kinase still bound, per cent of control [11] [%] | kinase still bound, per cent of control [12] [%] | kinase still bound, per cent of control [13] [%] | kinase still bound, per cent of control [14] [%] | kinase still bound, per cent of control [15] [%] | kinase still bound, per cent of control [16] [%] | kinase still bound, per cent of control [17] [%] | kinase still bound, per cent of control [18] [%] | kinase still bound, per cent of control [19] [%] | kinase still bound, per cent of control [20] [%] | also measured |
| --- | --- | --- | --- | --- | --- | --- | --- | --- | --- | --- | --- | --- | --- | --- | --- | --- | --- | --- | --- | --- | --- |
| C=CC(=O)Nc1cccc(Oc2nc(Nc3ccc(N4CCN(C)CC4)cc3OC)ncc2Cl)c1 | 100 | 100 | 35 | 100 | 100 | 100 | 100 | 100 | 21 | 100 | 11 | 1.6 | 100 | 100 | 0.25 | 20 | 100 | 100 | 100 | 100 | kinase still bound, per cent of control [21]: 100%; kinase still bound, per cent of control [22]: 100%; kinase still bound, per cent of control [23]: 100%; kinase still bound, per cent of control [24]: 100%; kinase still bound, per cent of control [25]: 100%; kinase still bound, per cent of control [26]: 100%; kinase still bound, per cent of control [27]: 100%; kinase still bound, per cent of control [28]: 100%; kinase still bound, per cent of control [29]: 100%; kinase still bound, per cent of control [30]: 100%; kinase still bound, per cent of control [31]: 17%; kinase still bound, per cent of control [32]: 100%; kinase still bound, per cent of control [33]: 100%; kinase still bound, per cent of control [34]: 100%; kinase still bound, per cent of control [35]: 2%; kinase still bound, per cent of control [36]: 100%; kinase still bound, per cent of control [37]: 100%; kinase still bound, per cent of control [38]: 1.8%; kinase still bound, per cent of control [39]: 1.3%; kinase still bound, per cent of control [40]: 0.35% |
| C[C@@H](Oc1cc(-n2cnc3ccc(CN4CCN(C)CC4)cc32)sc1C(N)=O)c1ccccc1C(F)(F)F | 70 | 42 | 17 | 67 | 100 | 100 | 68 | 89 | 46 | 62 | 9.8 | 100 | 99 | 68 | 88 | 80 | 29 | 100 | 0.6 | 4.9 | kinase still bound, per cent of control [21]: 100%; kinase still bound, per cent of control [22]: 41%; kinase still bound, per cent of control [23]: 13%; kinase still bound, per cent of control [24]: 69%; kinase still bound, per cent of control [25]: 26%; kinase still bound, per cent of control [26]: 100%; kinase still bound, per cent of control [27]: 59%; kinase still bound, per cent of control [28]: 52%; kinase still bound, per cent of control [29]: 100%; kinase still bound, per cent of control [30]: 74%; kinase still bound, per cent of control [31]: 63%; kinase still bound, per cent of control [32]: 100%; kinase still bound, per cent of control [33]: 75%; kinase still bound, per cent of control [34]: 100%; kinase still bound, per cent of control [35]: 23%; kinase still bound, per cent of control [36]: 90%; kinase still bound, per cent of control [37]: 86%; kinase still bound, per cent of control [38]: 68%; kinase still bound, per cent of control [39]: 75%; kinase still bound, per cent of control [40]: 29% |
| CCC(=O)N1CCN(c2ccc(-n3c(=O)ccc4cnc5ccc(-c6cnc7ccccc7c6)cc5c43)cc2C(F)(F)F)CC1 | 77 | 100 | 84 | 88 | 47 | 100 | 81 | 100 | 100 | 87 | 24 | 93 | 100 | 8.1 | 100 | 82 | 19 | 77 | 66 | 93 | kinase still bound, per cent of control [21]: 73%; kinase still bound, per cent of control [22]: 89%; kinase still bound, per cent of control [23]: 94%; kinase still bound, per cent of control [24]: 65%; kinase still bound, per cent of control [25]: 93%; kinase still bound, per cent of control [26]: 79%; kinase still bound, per cent of control [27]: 100%; kinase still bound, per cent of control [28]: 79%; kinase still bound, per cent of control [29]: 100%; kinase still bound, per cent of control [30]: 64%; kinase still bound, per cent of control [31]: 77%; kinase still bound, per cent of control [32]: 100%; kinase still bound, per cent of control [33]: 69%; kinase still bound, per cent of control [34]: 40%; kinase still bound, per cent of control [35]: 54%; kinase still bound, per cent of control [36]: 97%; kinase still bound, per cent of control [37]: 30%; kinase still bound, per cent of control [38]: 91%; kinase still bound, per cent of control [39]: 90%; kinase still bound, per cent of control [40]: 99% |
